Reference: ChEMBL document CHEMBL4507300 (2021)

Tests used:
[1] = target: MAP/microtubule affinity-regulating kinase 3 (Homo sapiens) (UniProt P27448); details: Compound concentration 1000.0 nM
[2] = target: Sodium-dependent serotonin transporter (Homo sapiens, UniProt P31645); details: Compound concentration 10.0 uM
[3] = target: Epithelial discoidin domain-containing receptor 1 (Homo sapiens) (UniProt Q08345); details: Compound concentration 1000.0 nM
[4] = target: Ankyrin repeat and protein kinase domain-containing protein 1 (Homo sapiens) (UniProt Q8NFD2); details: Compound concentration 1000.0 nM
[5] = target: NUAK family SNF1-like kinase 1 (Homo sapiens) (UniProt O60285); details: Compound concentration 1000.0 nM
[6] = target: Tyrosine-protein kinase Lyn (Homo sapiens) (UniProt P07948); details: Compound concentration 1000.0 nM
[7] = target: Mitotic checkpoint serine/threonine-protein kinase BUB1 (Homo sapiens) (UniProt O43683); details: Compound concentration 1000.0 nM
[8] = target: Ribosomal protein S6 kinase alpha-5 (Homo sapiens) (UniProt O75582); details: Compound concentration 1000.0 nM
[9] = target: Myosin-IIIa (Homo sapiens) (UniProt Q8NEV4); details: Compound concentration 1000.0 nM
[10] = target: 5-hydroxytryptamine receptor 1A (Homo sapiens) (UniProt P08908); details: Compound concentration 10.0 uM
[11] = target: Dual specificity protein kinase TTK (Homo sapiens) (UniProt P33981); details: Compound concentration 1000.0 nM
[12] = target: Insulin receptor (Homo sapiens) (UniProt P06213); details: Compound concentration 1000.0 nM
[13] = target: Serine/threonine-protein kinase RIO3 (Homo sapiens) (UniProt O14730); details: Compound concentration 1000.0 nM
[14] = target: 5'-AMP-activated protein kinase catalytic subunit alpha-2 (Homo sapiens) (UniProt P54646); details: Compound concentration 1000.0 nM
[15] = target: Alpha-2C adrenergic receptor (Homo sapiens) (UniProt P18825); details: Compound concentration 10.0 uM
[16] = target: Mitogen-activated protein kinase kinase kinase kinase 2 (Homo sapiens) (UniProt Q12851); details: Compound concentration 1000.0 nM
[17] = target: Activin receptor type-1-like (Homo sapiens) (UniProt P37023); details: Compound concentration 1000.0 nM
[18] = target: Muscarinic acetylcholine receptor M2 (Homo sapiens) (UniProt P08172); details: Compound concentration 10.0 uM
[19] = target: Tyrosine-protein kinase SYK (Homo sapiens) (UniProt P43405); details: Compound concentration 1000.0 nM
[20] = target: Histamine H1 receptor (Homo sapiens, UniProt P35367); test: GPCRScan assay: inhibition of H1; design: radioligand conc. used [nm] 0.6 – 2.0, parental cells stable HEK
[21] = tested on: Phosphatidylinositol 4,5-bisphosphate 3-kinase catalytic subunit alpha isoform (Homo sapiens), P42336 [H1047Y]; details: Compound concentration 1000.0 nM
[22] = target: AP2-associated protein kinase 1 (Homo sapiens) (UniProt Q2M2I8); details: Compound concentration 1000.0 nM
[23] = target: Cyclin-dependent kinase 17 (Homo sapiens) (UniProt Q00537); details: Compound concentration 1000.0 nM
[24] = target: Dual specificity tyrosine-phosphorylation-regulated kinase 2 (Homo sapiens) (UniProt Q92630); details: Compound concentration 1000.0 nM
[25] = tested on: Receptor-type tyrosine-protein kinase FLT3 (Homo sapiens), P36888 [UNDEFINED MUTATION]; details: Compound concentration 1000.0 nM
[26] = target: Cyclin-dependent kinase 11A (Homo sapiens) (UniProt Q9UQ88); details: Compound concentration 1000.0 nM
[27] = target: Ribosomal protein S6 kinase alpha-1 (Homo sapiens) (UniProt Q15418); details: Compound concentration 1000.0 nM
[28] = target: Serine/threonine-protein kinase PAK 6 (Homo sapiens) (UniProt Q9NQU5); details: Compound concentration 1000.0 nM
[29] = tested on: Tyrosine-protein kinase ABL1 (Homo sapiens), P00519 [Q252H]; details: Compound concentration 1000.0 nM
[30] = target: Ephrin type-A receptor 7 (Homo sapiens) (UniProt Q15375); details: Compound concentration 1000.0 nM
[31] = target: Non-receptor tyrosine-protein kinase TNK1 (Homo sapiens) (UniProt Q13470); details: Compound concentration 1000.0 nM
[32] = target: Tyrosine-protein kinase Fyn (Homo sapiens) (UniProt P06241); details: Compound concentration 1000.0 nM
[33] = tested on: Phosphatidylinositol 4,5-bisphosphate 3-kinase catalytic subunit alpha isoform (Homo sapiens), P42336 [I800L]; details: Compound concentration 1000.0 nM
[34] = tested on: Receptor-type tyrosine-protein kinase FLT3 (Homo sapiens), P36888 [R834Q]; details: Compound concentration 1000.0 nM
[35] = target: Casein kinase II subunit alpha' (Homo sapiens) (UniProt P19784); details: Compound concentration 1000.0 nM
[36] = tested on: Tyrosine-protein kinase ABL1 (Homo sapiens), P00519 [Q252H]; details: Compound concentration 1000.0 nM; remark: listed apart in the source
[37] = target: Cyclin-dependent kinase-like 3 (Homo sapiens) (UniProt Q8IVW4); details: Compound concentration 1000.0 nM
[38] = target: Serine/threonine-protein kinase VRK2 (Homo sapiens) (UniProt Q86Y07); details: Compound concentration 1000.0 nM
[39] = target: Phosphatidylinositol 5-phosphate 4-kinase type-2 gamma (Homo sapiens) (UniProt Q8TBX8); details: Compound concentration 1000.0 nM
[40] = target: Serine/threonine-protein kinase Nek10 (Homo sapiens) (UniProt Q6ZWH5); details: Compound concentration 1000.0 nM
[41] = target: Mitogen-activated protein kinase 4 (Homo sapiens) (UniProt P31152); details: Compound concentration 1000.0 nM
[42] = target: Serine/threonine-protein kinase PLK1 (Homo sapiens) (UniProt P53350); details: Compound concentration 1000.0 nM
[43] = target: Serine/threonine-protein kinase LATS2 (Homo sapiens) (UniProt Q9NRM7); details: Compound concentration 1000.0 nM
[44] = target: Homeodomain-interacting protein kinase 1 (Homo sapiens) (UniProt Q86Z02); details: Compound concentration 1000.0 nM
[45] = target: Calcium/calmodulin-dependent protein kinase type II subunit gamma (Homo sapiens) (UniProt Q13555); details: Compound concentration 1000.0 nM

Chain of Mitogen-activated protein kinase kinase kinase kinase 2 (Homo sapiens) (Q12851 whole entry): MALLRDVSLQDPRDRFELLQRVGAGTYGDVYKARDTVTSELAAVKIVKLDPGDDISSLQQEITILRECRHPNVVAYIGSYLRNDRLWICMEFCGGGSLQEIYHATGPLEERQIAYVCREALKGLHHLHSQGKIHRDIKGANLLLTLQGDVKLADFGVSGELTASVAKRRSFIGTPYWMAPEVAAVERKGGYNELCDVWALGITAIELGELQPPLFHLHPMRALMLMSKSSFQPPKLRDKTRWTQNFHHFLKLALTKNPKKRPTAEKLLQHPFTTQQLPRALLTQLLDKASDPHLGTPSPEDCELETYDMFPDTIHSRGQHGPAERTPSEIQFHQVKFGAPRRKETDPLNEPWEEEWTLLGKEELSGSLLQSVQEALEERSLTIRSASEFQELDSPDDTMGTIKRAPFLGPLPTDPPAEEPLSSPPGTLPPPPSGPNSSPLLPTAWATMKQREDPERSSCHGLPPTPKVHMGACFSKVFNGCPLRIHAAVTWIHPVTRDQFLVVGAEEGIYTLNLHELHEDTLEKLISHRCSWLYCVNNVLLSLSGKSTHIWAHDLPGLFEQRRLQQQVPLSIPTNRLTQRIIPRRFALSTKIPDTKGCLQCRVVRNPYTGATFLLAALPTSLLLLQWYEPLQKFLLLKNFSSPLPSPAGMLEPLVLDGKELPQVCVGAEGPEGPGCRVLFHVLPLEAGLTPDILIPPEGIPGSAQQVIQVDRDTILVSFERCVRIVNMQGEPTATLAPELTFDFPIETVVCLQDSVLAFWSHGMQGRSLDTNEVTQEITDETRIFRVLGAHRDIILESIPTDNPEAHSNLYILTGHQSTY
Chain of Dual specificity tyrosine-phosphorylation-regulated kinase 2 (Homo sapiens) (Q92630 whole entry): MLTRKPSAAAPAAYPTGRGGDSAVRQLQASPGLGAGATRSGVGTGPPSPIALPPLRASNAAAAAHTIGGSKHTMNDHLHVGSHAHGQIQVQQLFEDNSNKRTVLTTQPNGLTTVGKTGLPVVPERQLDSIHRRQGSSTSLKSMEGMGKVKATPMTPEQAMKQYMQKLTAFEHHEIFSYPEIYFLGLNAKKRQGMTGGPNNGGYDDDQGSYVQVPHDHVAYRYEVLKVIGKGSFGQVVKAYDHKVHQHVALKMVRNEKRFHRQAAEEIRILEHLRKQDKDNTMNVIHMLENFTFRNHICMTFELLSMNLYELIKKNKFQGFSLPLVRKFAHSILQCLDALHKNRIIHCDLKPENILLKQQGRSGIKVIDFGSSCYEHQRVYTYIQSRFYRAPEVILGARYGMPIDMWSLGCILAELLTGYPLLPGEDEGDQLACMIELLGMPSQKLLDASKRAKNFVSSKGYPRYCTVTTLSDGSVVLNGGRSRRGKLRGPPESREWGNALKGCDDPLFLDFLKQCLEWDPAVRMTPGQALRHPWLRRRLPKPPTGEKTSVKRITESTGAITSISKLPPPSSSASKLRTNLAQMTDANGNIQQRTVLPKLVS
Chain of Dual specificity protein kinase TTK (Homo sapiens) (P33981 whole entry): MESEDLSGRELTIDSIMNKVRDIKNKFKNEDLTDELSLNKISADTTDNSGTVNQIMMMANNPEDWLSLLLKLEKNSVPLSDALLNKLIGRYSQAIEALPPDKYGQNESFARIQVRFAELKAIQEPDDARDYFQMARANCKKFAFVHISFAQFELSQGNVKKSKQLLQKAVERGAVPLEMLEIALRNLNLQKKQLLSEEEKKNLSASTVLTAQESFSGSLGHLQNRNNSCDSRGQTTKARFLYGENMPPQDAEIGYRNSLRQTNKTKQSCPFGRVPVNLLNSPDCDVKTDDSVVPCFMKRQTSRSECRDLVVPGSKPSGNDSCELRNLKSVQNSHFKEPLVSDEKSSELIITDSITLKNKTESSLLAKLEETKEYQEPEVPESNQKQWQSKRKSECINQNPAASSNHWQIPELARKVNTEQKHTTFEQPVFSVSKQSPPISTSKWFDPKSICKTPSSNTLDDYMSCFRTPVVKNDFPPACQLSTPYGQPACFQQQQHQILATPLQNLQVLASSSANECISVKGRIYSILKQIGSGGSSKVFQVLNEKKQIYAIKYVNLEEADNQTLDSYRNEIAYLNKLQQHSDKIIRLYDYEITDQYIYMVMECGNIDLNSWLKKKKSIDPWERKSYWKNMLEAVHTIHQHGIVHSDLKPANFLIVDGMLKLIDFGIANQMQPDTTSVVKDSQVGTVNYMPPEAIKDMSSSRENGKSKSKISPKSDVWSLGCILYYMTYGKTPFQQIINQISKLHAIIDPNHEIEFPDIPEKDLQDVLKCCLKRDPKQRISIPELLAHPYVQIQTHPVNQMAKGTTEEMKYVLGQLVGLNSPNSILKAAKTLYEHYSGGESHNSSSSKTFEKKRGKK
Chain of MAP/microtubule affinity-regulating kinase 3 (Homo sapiens) (P27448 whole entry, looked up): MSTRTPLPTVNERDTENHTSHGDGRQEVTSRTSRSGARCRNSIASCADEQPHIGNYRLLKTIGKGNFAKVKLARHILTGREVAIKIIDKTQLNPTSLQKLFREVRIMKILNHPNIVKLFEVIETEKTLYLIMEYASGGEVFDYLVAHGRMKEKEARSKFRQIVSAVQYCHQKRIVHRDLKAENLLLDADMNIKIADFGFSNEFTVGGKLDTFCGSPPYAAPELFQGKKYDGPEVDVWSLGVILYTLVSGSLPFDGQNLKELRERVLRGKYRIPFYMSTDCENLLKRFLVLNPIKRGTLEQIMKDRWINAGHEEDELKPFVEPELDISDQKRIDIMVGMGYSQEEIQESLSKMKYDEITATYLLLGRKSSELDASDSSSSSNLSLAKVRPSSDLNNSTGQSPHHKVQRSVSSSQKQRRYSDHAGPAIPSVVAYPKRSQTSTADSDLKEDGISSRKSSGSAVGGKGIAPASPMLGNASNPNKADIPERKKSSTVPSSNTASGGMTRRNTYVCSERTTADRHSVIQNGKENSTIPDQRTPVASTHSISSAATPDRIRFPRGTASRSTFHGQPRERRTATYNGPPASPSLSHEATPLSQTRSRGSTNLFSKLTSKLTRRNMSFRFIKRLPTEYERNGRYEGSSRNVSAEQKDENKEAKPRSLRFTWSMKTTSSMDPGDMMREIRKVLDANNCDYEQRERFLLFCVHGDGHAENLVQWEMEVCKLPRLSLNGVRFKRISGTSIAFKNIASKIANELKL
Chain of Mitogen-activated protein kinase 4 (Homo sapiens) (P31152 whole entry): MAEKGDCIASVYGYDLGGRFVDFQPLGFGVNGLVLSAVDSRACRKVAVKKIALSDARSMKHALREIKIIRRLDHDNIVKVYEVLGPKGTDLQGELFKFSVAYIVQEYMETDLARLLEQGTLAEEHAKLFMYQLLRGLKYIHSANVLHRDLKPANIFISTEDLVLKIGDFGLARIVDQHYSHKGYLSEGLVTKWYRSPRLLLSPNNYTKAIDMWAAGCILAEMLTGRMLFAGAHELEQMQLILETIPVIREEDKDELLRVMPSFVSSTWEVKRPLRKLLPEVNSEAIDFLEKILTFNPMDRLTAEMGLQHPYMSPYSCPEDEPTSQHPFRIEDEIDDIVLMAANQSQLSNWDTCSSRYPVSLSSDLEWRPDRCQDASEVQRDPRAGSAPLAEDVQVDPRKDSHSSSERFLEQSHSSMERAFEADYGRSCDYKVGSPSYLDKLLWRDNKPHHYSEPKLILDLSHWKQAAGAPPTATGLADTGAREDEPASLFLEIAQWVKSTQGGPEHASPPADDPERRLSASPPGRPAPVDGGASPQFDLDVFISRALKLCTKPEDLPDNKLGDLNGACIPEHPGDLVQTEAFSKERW
Chain of Ribosomal protein S6 kinase alpha-5 (Homo sapiens) (O75582 whole entry, looked up): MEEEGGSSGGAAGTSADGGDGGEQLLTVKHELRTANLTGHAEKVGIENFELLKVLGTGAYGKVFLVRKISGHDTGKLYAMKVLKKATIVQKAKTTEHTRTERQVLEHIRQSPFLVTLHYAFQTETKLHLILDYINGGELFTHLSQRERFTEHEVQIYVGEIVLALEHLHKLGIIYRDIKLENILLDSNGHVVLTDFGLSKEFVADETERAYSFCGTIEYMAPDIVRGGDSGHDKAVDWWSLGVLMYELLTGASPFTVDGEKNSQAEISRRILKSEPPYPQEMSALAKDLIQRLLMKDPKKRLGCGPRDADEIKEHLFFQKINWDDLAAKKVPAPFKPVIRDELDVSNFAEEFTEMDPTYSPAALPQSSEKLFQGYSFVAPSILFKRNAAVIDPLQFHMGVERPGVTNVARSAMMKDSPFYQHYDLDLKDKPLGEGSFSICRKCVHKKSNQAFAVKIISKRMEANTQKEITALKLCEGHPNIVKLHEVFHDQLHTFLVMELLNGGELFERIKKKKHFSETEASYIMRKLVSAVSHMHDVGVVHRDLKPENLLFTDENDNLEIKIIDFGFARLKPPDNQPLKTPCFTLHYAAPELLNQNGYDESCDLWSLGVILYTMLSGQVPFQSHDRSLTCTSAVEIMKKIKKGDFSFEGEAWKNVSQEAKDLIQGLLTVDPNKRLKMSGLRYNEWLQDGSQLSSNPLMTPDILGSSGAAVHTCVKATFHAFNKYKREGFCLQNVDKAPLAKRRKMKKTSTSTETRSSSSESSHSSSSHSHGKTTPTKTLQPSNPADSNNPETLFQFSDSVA
Chain of Serine/threonine-protein kinase RIO3 (Homo sapiens) (O14730 whole entry): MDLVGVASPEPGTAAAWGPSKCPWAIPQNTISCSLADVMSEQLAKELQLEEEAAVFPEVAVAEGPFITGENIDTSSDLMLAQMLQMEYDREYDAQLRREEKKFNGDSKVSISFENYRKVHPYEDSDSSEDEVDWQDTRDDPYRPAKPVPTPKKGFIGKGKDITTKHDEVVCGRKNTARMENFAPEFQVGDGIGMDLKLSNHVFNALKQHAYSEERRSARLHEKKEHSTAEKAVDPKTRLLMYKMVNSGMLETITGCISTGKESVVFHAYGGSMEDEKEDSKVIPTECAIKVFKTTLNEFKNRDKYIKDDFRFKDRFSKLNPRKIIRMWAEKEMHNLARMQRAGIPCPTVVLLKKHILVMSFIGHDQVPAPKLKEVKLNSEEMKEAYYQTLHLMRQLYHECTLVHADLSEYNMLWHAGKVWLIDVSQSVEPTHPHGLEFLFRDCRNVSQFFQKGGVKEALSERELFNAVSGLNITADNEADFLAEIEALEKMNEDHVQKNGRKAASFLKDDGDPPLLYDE

SMILES: COc1cccc(CNC(=O)c2nc3scc(COCc4ccc(C(=O)O)cc4)c3c(=O)[nH]2)c1 [T-26c]
- residual activity [1]: 100%
- inhibition [2]: -3.64%
- residual activity [3]: 100%
- residual activity [4]: 70.9%
- residual activity [5]: 86.6%
- residual activity [6]: 93.7%
- residual activity [7]: 70.2%
- residual activity [8]: 93.1%
- residual activity [9]: 88%
- inhibition [10]: 7.7%
- residual activity [11]: 92.8%
- residual activity [12]: 76.2%
- residual activity [13]: 63.2%
- residual activity [14]: 70.5%
- inhibition [15]: 4.23%
- residual activity [16]: 83%
- residual activity [17]: 100%
- inhibition [18]: -2.95%
- residual activity [19]: 100%
- Ki [20]: 98 nM
- residual activity [21]: 100%
- residual activity [22]: 100%
- residual activity [23]: 87.8%
- residual activity [24]: 100%
- residual activity [25]: 93.7%
- residual activity [26]: 99.2%
- residual activity [27]: 100%
- residual activity [28]: 100%
- residual activity [29]: 86.4%
- residual activity [30]: 86.5%
- residual activity [31]: 100%
- residual activity [32]: 81.1%
- residual activity [33]: 77.2%
- residual activity [34]: 77.9%
- residual activity [35]: 79.4%
- residual activity [36]: 91.4%
- residual activity [37]: 100%
- residual activity [38]: 74.2%
- residual activity [39]: 74.7%
- residual activity [40]: 61.7%
- residual activity [41]: 80%
- residual activity [42]: 54.1%
- residual activity [43]: 86.2%
- residual activity [44]: 88.4%
- residual activity [45]: 100%
